Consider 7 compounds from patent US11466019B2, “Triazolo[4,5-d] pyramidine derivatives and their use as purine receptor antagonists” (Vernalis (R&D) Limited, priority 2008, dated 2022).

What is called Ki is the dissociation constant of the complex between target and ligand, obtained from inhibition or displacement. One may read the melting point as the temperature, or range, at which the solid turns liquid.

The test system of one series is Parkinsonian patients. As to conditions: cited from earlier work.
Series [1] has as its target T1, human adenosine A2A receptors (Homo sapiens, UniProt P29274).
T1 construct: host or cells: HEK-293
Description: Adenosine receptor binding: binding affinities at hA2A receptors ([3H]CGS-21680 displacement). As to conditions: Table 1; [3H]CGS-21680 displacement, HEK-293 membranes; read-out: Binding Affinity hA2A-Ki.

Series [2] deals with haloperidol-induced deficits in locomotor activity in mice. Description: Haloperidol-induced hypolocomotion model (HaloLMA). As to conditions: female TO mice, intraperitoneal, haloperidol 0.2 mg/kg. Format: in vivo. An excerpt: Evaluation of Potential Anti-Parkinsonian Activity In Vivo: Haloperidol-Induced Hypolocomotion Model
This approach is also considered a valid method for screening drugs with potential antiparkinsonian effects. Thus, the ability of novel adenosine antagonists to block haloperidol-induced deficits in locomotor activity in mice can be used to assess both in vivo and potential antiparkinsonian efficacy.
Female TO mice (25-30 g) are used for all experiments. Animals are housed in groups of 8 (cage size-40 cm (width) by 40 cm (length) by 20 cm (height)) under 12 hour light/dark cycle (lights on 08:00), in a temperature (20±2° C.) and humidity (55±15%) controlled environment. Animals have free access to food and water, and are allowed at least 7 days to acclimatize after delivery before experimental use.
Liquid injectable haloperidol (e.g., 1 mL Serenance ampoules from Baker Norton, Harlow, Essex, each containing haloperidol BP 5 mg) are diluted to a final concentration of 0.02 mg/mL using saline. Test compounds are typically prepared as aqueous suspensions in 8% Tween. All compounds are administered intraperitoneally in a volume of 10 mL/kg.
1.5 hours before testing, mice are administered 0.2 mg/kg haloperidol, a dose that reduces baseline locomotor activity by at least 50%. Test substances are typically administered 5-60 minutes prior to testing. The animals are then placed individually into clean, clear polycarbonate cages (20 cm (width) by 40 cm (length) by 20 cm (height), with a flat perforated, Perspex lid). Horizontal locomotor activity is determined by placing the cages within a frame containing a 3 by 6 array of photocells linked to a computer, which tabulates beam breaks. Mice are left undisturbed to explore for 1 hour, and the number of beams breaks made during this period serves as a record of locomotor activity which is compared with data for control animals for statistically significant differences.
A number of the exemplified compounds of the present invention were tested in this assay and the results obtained are shown in Table 3, below.

Series [3] has as its target T2, human adenosine A1 receptors (Homo sapiens, UniProt P30542).
T2 construct: expressed in transfected cells; host or cells: CHO-K1
T2 sequence (P30542 1-326): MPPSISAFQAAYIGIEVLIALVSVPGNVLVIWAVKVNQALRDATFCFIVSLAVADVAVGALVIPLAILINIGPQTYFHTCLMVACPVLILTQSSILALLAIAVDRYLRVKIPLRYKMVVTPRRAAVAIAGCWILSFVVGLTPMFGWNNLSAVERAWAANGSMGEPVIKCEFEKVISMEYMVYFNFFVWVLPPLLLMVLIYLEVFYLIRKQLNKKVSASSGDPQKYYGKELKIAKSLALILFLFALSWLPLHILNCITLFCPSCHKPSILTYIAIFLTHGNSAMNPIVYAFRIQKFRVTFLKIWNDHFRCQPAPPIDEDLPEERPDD
Put plainly: Adenosine receptor binding: binding affinities at hA1 receptors ([3H]DPCPX displacement). The settings on record: Table 1; for Ki: [3H]DPCPX displacement, CHO-K1 membranes, read-out: Binding Affinity hA1-Ki; for Binding Selectivity A1/A2a: ratio of Ki values.

The target in a further series is T3, hA2B receptors (Homo sapiens, UniProt P29275).
T3 construct: host or cells: HEK-293
T3 sequence (P29275 1-332): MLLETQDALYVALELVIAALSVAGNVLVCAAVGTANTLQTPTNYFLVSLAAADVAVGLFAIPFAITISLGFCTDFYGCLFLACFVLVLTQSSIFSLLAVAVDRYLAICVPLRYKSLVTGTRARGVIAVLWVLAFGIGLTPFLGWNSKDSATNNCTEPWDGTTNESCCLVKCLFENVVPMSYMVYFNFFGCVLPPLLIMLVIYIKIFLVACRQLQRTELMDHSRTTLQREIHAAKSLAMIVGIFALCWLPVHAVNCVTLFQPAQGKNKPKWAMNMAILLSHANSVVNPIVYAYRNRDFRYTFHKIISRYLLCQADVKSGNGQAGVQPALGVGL
Description: Adenosine receptor binding: binding affinities at hA2B receptors ([3H]-ZM241385 displacement). As to conditions: Table 1; for Ki: [3H]-ZM241385 displacement, HEK-293 membranes, read-out: Binding Affinity hA2B-Ki; for Binding Selectivity A2b/A2a: ratio of Ki values.

For series [4], the target named is T4, human adenosine A3 receptors (Homo sapiens, UniProt P0DMS8).
T4 construct: expressed in transfected cells; host or cells: CHO-K1
T4 sequence (P0DMS8 1-318): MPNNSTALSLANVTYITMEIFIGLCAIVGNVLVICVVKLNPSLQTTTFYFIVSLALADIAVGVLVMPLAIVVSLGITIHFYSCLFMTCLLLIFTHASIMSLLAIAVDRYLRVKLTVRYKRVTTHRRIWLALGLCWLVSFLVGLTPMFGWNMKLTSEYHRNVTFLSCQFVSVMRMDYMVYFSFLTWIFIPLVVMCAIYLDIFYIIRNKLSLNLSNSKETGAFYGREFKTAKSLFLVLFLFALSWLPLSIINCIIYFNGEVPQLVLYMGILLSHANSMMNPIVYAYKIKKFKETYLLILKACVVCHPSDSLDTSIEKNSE
Put plainly: Adenosine receptor binding: binding affinities at hA3 receptors ([125I]-AB MECA displacement). As to conditions: Table 1; for Ki: [125I]-AB MECA displacement, CHO-K1 membranes, read-out: Binding Affinity hA3-Ki; for Binding Selectivity A3/A2a: ratio of Ki values.

The next series deals with cataleptic responses. The settings on record: cited from earlier work.

T1 sequence (P29274 whole entry): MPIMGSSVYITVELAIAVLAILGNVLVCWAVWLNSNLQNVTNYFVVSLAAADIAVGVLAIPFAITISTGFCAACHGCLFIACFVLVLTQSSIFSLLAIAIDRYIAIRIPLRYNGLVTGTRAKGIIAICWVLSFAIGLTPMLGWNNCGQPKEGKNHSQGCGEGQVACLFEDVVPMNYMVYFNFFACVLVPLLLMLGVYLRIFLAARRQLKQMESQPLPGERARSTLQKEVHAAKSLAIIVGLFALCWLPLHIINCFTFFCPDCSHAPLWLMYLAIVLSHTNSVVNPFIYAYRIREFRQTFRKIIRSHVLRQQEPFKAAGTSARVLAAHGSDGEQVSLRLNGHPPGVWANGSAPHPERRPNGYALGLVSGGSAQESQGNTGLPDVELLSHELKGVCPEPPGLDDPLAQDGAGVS

In the case of `Cn1c(=O)c2[nH]cnc2n(C)c1=O` [theophylline, 1,3-dimethylxanthine], in the series on Parkinsonian patients (15 Parkinsonian patients, treated for up to 12 weeks), the “mean objective disability scores” value is reported as “significant improvements”. Besides, the “patients who reported moderate or marked subjective improvement” value in the series with Parkinsonian patients (of 15 Parkinsonian patients, treated for up to 12 weeks) is listed as 11. Also, the serum theophylline levels in the series with Parkinsonian patients (slow release oral theophylline preparation, after one week, Parkinsonian patients) is reported as 4.44 mg/L.
In the case of `Cc1ccc(-c2nc(N)nc3c2nnn3Cc2cccc(COCC3CCCO3)n2)o1` (stereo not drawn) [Example 33, 745-methylfuran-2-yl-3-(6-[tetrahydrofuran-2-ylmethyl]oxymethylpyrid-2-ylmethyl)-3H-[1,2,3]triazolo[4,5-d]pyrimidin-5-amine], the melting point lay in the range of 154.2 to 154.5 °C. Besides, the Ki in series [1] came to 7.2 nM. The “In Vivo activity HaloLMA MED” value in series [2] is on record as 3 mg/kg. In series [3], the Ki stood at 299 nM and the “Binding Selectivity A1/A2a” value amounted to 42. On hA2B receptors, the Ki was found to be 1980 nM and the “Binding Selectivity A2b/A2a” value came to 274. Moreover, in series [4], the Ki is 2180 nM and the “Binding Selectivity A3/A2a” value came to 303.
As to `CCCn1c(=O)c2c(nc(/C=C/c3ccc(OC)c(OC)c3)n2C)n(CCC)c1=O` [KF 17837, E-8-(3,4dimethoxystyryl)-1,3-dipropyl-7-methylxanthine], the “anticataleptic effects of a subthreshold dose of L-DOPA plus benserazide” value in the series with cataleptic responses (combination) is given as “potentiated the anticataleptic effects”. Besides, the “catalepsy induced by haloperidol and reserpine” value in the series with cataleptic responses (in vivo) is listed as “reduced the catalepsy”. In addition, the “cataleptic responses induced by intracerebroventricular administration of CGS 21680” value with cataleptic responses (oral administration) is “significantly ameliorated”.
`Cc1ccc(-c2nc(N)nc3c2nnn3Cc2cccc(COC(F)F)n2)o1` [Example 31, 7-(5-methylfuran-2-yl)-3-(6-[difluoromethyloxymethyl]-pyrid-2-ylmethyl)-3H-[1,2,3]triazolo[4,5-d]pyrimidin-5-amine]: the melting point lay within 194.8 to 195.1 °C. Besides, the “In Vivo activity HaloLMA MED” value in series [2] is reported as 1 mg/kg.
Consider `Cc1ccc(-c2nc(N)nc3c2nnn3Cc2cccc(COCC3CCOC3)n2)o1` (racemic) [Example 34, 7-(5-methylfuran-2-yl)-3-(6-[tetrahydrofuran-3-ylmethyl]oxymethylpyrid-2-ylmethyl)-3H-[1,2,3]triazolo[4,5-d]pyrimidin-5-amine], for which the melting point was in the range of 168.7 to 168.9 °C. Besides, the inhibition constant Ki in series [1] amounted to 4.1 nM. Moreover, the “In Vivo activity HaloLMA MED” value in series [2] was found to be 1 mg/kg. In addition, in series [3], the Ki was 164 nM and the “Binding Selectivity A1/A2a” value is reported as 40. In addition, at hA2B receptors, the inhibitory constant (Ki) came to 1890 nM and the “Binding Selectivity A2b/A2a” value came out at 457. For the same compound, in series [4], the Ki was found to be 2120 nM and the “Binding Selectivity A3/A2a” value is 513.
Regarding `Cc1ccc(-c2nc(N)nc3c2nnn3Cc2cccc(COCC(F)(F)F)n2)o1` [Example 37, 7-(5-methylfuran-2-yl)-3-(6-[2,2,2-trifluoroethyl]oxymethylpyrid-2-ylmethyl)-3H-[1,2,3]triazolo[4,5-d]pyrimidin-5-amine], in series [1], the Ki worked out at 4.4 nM. The “In Vivo activity HaloLMA MED” value in series [2] was 1 mg/kg. In series [3], the inhibition constant (Ki) turned out to be 231 nM and the “Binding Selectivity A1/A2a” value was 52. Moreover, on hA2B receptors, the inhibition constant Ki was found to be 2380 nM and the “Binding Selectivity A2b/A2a” value amounted to 536. In addition, in series [4], the Ki worked out at 2490 nM and the “Binding Selectivity A3/A2a” value stood at 560.
For the compound `Cc1ccc(-c2nc(N)nc3c2nnn3Cc2cccc(C3(O)CCC3)n2)o1` [Example 6], the inhibition constant Ki in series [1] was found to be 1.1 nM; in series [3], 354 nM; at hA2B receptors, 1370 nM; in series [4], 1500 nM. Besides, the “In Vivo activity HaloLMA MED” value in series [2] is 1 mg/kg. For the same compound, the “Binding Selectivity A1/A2a” value in series [3] was 313. In addition, the “Binding Selectivity A2b/A2a” value at hA2B receptors is given as 1216. Also, in series [4], the “Binding Selectivity A3/A2a” value is 1326.
